What was measured:
[1] = test system: glutathione S-transferase (GST); test: Glutathione S-transferase assay (CDNB conjugation, absorbance 340 nm); format: biochemical, equine; settings: for GST Activity > 50%: yes/no, compared to GSH, more than 50% considered retaining GST activity; for activity/efficacy with GST enzyme (in words): qualitative analysis
Procedure: The degree of conjugation of GSH or novel compounds to a substrate catalysed by GST can be monitored […] by conjugation with the substrate 1-chloro-2,4-dinotrobenzene (CDNB) to a thiol group. Successful conjugation results in the formation of a S-DNB conjugate, which strongly absorbs at 340 nm.
A stock solution of GSH and novel compounds (0.0315 mmolL^−1) were prepared. GSH or novel compounds (26 µL) were added to a mixture of pH = 7.4 DPBS (170 µL), CDNB (2 µL, 100 mmolL^−1), and GST enzyme (2 µL, 25 UmL^−1) to initiate the reaction. The rate of increase in absorbance at 340 nm was monitored every minute over a 10 min period. The rate of increase in absorbance at 340 nm was calculated by the following equation (Equation (1)), where ΔA340 is the change in absorption at 340 nm per minute:(1) ΔA340=A340(final)–A340(initial)/t.
The rate of increase in absorption at 340 nm was correlated to the specific activity of GST using the following equation (Equation (2)):(2) ΔA340×V/εmM ×Venz=Specific activity of GST, where the extinction coefficient εmM for a 96-well plate of a path length of 0.5 cm is 5.3 mmolL^−1cm^−1; Venz is the volume of the GST enzyme sample used (2 µL); and V is the total volume used ([…]). […] A GST activity more than 50% was considered as retaining GST activity.

[2] = test system: glutathione reductase (GR) and glutathione peroxidase (GPx); test: Glutathione reductase and glutathione peroxidase coupled assay (NADPH, 340 nm); format: biochemical, yeast (GR), bovine (GPx); settings: for GT/GPx Activity > 50%: yes/no, more than 50% considered retaining GR and GPx activity; for activity with GPx and GR enzymes (in words): qualitative analysis
Procedure: The activity of GR can be measured by monitoring the rate of decrease in absorbance of its substrate, NADPH, which absorbs light of 340 nm in the presence of a second substrate, i.e., oxidised GSH. […] In the presence of peroxides, reduced GSH can be oxidised by the enzyme GPx while reducing the peroxide. […] The NADPH solution (10 μL, 5 mmolL^−1), GPx enzyme solution (10 μL, 0.25 UmL^−1), and GR enzyme solution (10 μL, 10 UmL^−1) were also added to the reaction mixture. The reaction was initiated by the addition of tBu-OOH (2 μL, 30 mmolL^−1), and the decrease in absorbance at 340 nm was recorded by a microplate reader every 10 secs for one minute. […] A GR and GPx activity more than 50% was considered as retaining GR and GPx activity.

Fibroblast cells = test: UV rescue of UVA-irradiated fibroblast cells (MTT); format: cell-based; settings: for cell viability versus untreated groups (in words): UV rescue; for % Cell Viability (with UV): UVA 1 h, then peptide 0.0325 mmolL^−1, 24 h
Procedure: (§1) Fibroblast cells were seeded into 96-well plates at a density of 10,000 cells per well determined by cell counting. Cells were allowed to settle and attach for 24 h before the addition of peptides. The supernatant in each well was discarded, and the attached cells were washed using serum-free DMEM twice. One group of cells was exposed to UVA under a UV lamp for 1 h. A second group of cells was not exposed to UV irradiation. The supernatant was removed from each well of both groups and replaced with peptide (100 μL, 0.0325 mmolL^−1), which was then dissolved in Fluorobite^TM DMEM. Each plate, including 2 wells of both groups was also incubated with serum-free DMEM (positive control) and 2% Triton-X (negative control) for 24 h. The supernatant in each well of both groups was then discarded and the cells washed using PBS. MTT (100 μL, 6 mmolL^−1) that was dissolved in HBSS was then added to each well and incubated for 2 h for MTT conversion into formazan. The supernatant was then discarded, and the cells were washed using PBS to remove any residual MTT and formazan that were not attached to the cellular mitochondria. Formazan was dissolved in DMSO (50 μL), and the absorbance was measured on a microplate reader at a wavelength of 570 nm.

[3] = test system: Caco-2, Fibroblast, and HT29-MTX-E12 cells; test: Cytotoxicity by MTT cell viability; format: cell-based; settings: 24 h incubation, cell line not split in table (Caco-2, Fibroblast, HT29-MTX-E12), highest usable concentration 3.25 mmolL^−1
Procedure: All cell culture studies were conducted in aseptic conditions. Incubation was maintained at an atmosphere of 37.0 °C, 5% CO2, and 95% relative humidity. The caco-2 cells were grown in complete Dulbecco’s modified Eagle’s medium (DMEM), which was prepared by adding 10% foetal bovine serum (FBS), 1% penicillin-streptomycin (P-S), and 1% non-essential amino acids (NEAA) to sterile DMEM. Cells were cultured in T-25 and T-75 tissue culture flasks, and the medium was exchanged every 3 days until 90% confluence was reached. Cells were detached and subcultured with 0.25% Trypsin-EDTA. The suspended cell concentration was determined by cell counting.
Cytotoxicity was measured by measuring cell viability using MTT. Then, 90% confluent cells were detached by 0.25% trypsin-EDTA, which were then counted and seeded into sterile 96-well plates. Caco-2 cells were seeded into 96-well plates at a density of 100,000 cells per well and incubated for 24 h prior to the experiment. Fibroblast cells were seeded into 96-well plates at a density of 10,000 cells per well and incubated for 24 h prior to the experiment. HT-29 cells were seeded into 96-well plates at a density of 10,000 cells per well and incubated for 24 h prior to the experiment. The supernatant in each well were discarded and the attached cells were washed using serum-free Fluorobite^TM DMEM twice to remove any phenol red. The peptide, at concentrations of 10 mgmL^−1, 1 mgmL^−1, 0.1 mgmL^−1, 0.01 mgmL^−1, 0.001 mgmL^−1, and 0.0001 mgmL^−1 were dissolved in serum-free Fluorobite^TM DMEM. The total volume of sample in each well used was 100 μL. The cells were incubated with the peptide for 24 h. Cells were also incubated with serum-free DMEM (positive control) and 2% Triton-X (negative control) for 24 h. The supernatant in each well was then discarded and washed using serum-free Fluorobite^TM DMEM. MTT (100 μL, 1.2 mmolL^−1) dissolved in Fluorobite^TM DMEM was then added to each well and incubated for 2 h for MTT conversion into formazan. The supernatant was then discarded, and the cells were washed using Fluorobite^TM DMEM to remove any residual MTT and formazan that were not attached to cellular mitochondria. Formazan was dissolved in dimethyl sulfoxide (DMSO) (50 μL), and the absorbance was measured on a microplate reader at a wavelength of 570 nm. Cell viability was expressed as a percentage of the positive control and calculated as follows (where Aexp is the absorbance at 570 nm of the experimental group, Aneg is the absorbance at 570 nm of the negative control, and Acon is the cell viability of the positive control): Cell viability = (Aexp − Aneg)/(Acon − Aneg).

[4] = test system: γ-glutamyl transferase (GGT); format: in vitro ADME, equine; settings: for % Degradation by GGT: horse, 100 μgmL^−1, pH 9
Procedure: Each compound and GSH (100 μgmL^−1, 0.0315 molL^−1) was added to each reaction vessel containing phosphate buffer solution (800 μL, pH 9.0). The reaction vessels were incubated at 37 °C with shaking for the entire duration of the experiment. Reaction was initiated by the addition of GGT enzyme solution (100 μL, 10 UmL^−1). […] The degradation rate of the novel compounds analysed by HPLC were compared with that of GSH. […] A GGT degradation less than 50% was considered resistance to GTT activity.

[5] = UV rescue of UVA-irradiated fibroblast cells (MTT); format: cell-based; settings: peptide 0.0325 mmolL^−1, 24 h, no UV, mean ± SD, n = 6, read-out: % Cell Viability (no UV)
Procedure: as §1

N[C@@H](CCC(=O)N[C@@H](CS)C(=O)NCC(=O)O)C(=O)O [Compound 1.61]
GST Activity > 50% [1]: ✔ (✔: yes) | GT/GPx Activity > 50% [2]: ✔ (✔: yes) | cell viability versus untreated groups (in words) (Fibroblast cells): significantly higher cell viability than the untreated groups | % Cell Viability (with UV) (Fibroblast cells; mean ± SD, n = 6): 69.0 ± 0.6% | % Cell Viability (no UV) (Fibroblast cells; peptide 0.0325 mmolL^−1, 24 h, no UV, mean ± SD, n = 6): 74.3 ± 2.0% | IC50 [3]: > 3.25 mM | % Degradation by GGT [4]: 100%

N[C@@H](CCC(=O)N[C@H](CS)C(=O)NCC(=O)O)C(=O)O [Compound 1.62]
activity/efficacy with GST enzyme (in words) [1]: lost detoxification efficacy | GST Activity > 50% [1]: X (X: no) | activity with GPx and GR enzymes (in words) [2]: loss of activity | GT/GPx Activity > 50% [2]: X (X: no) | cell viability versus untreated groups (in words) (Fibroblast cells): significantly higher cell viability than the untreated groups | % Cell Viability (with UV) (Fibroblast cells; mean ± SD, n = 6): 70.8 ± 5.7% | viability at 24 h, 0.0325 mmolL^−1 [5]: 112 ± 5.5% | IC50 ([3]; Homo sapiens): > 3.25 mM | GGT degradation compared to GSH (in words) [4]: less than half the rate of GGT degradation | % Degradation by GGT [4]: 82.3%

N[C@H](CCC(=O)N[C@@H](CS)C(=O)NCC(=O)O)C(=O)O [Compound 1.63]
activity/efficacy with GST enzyme (in words) [1]: lost detoxification efficacy | GST Activity > 50% [1]: X (X: no) | activity with GPx and GR enzymes (in words) [2]: retained activity | GT/GPx Activity > 50% [2]: ✔ (✔: yes) | cell viability versus untreated groups (in words) (Fibroblast cells): significantly higher cell viability than the untreated groups | % Cell Viability (with UV) (Fibroblast cells; mean ± SD, n = 6): 101.1 ± 5.2% | viability at 24 h, 0.0325 mmolL^−1 [5]: 137 ± 16.1% | IC50 ([3]; Homo sapiens): > 3.25 mM | GGT degradation compared to GSH (in words) [4]: less than half the rate of GGT degradation | % Degradation by GGT [4]: 72.7%

N[C@H](CCC(=O)N[C@H](CS)C(=O)NCC(=O)O)C(=O)O [Compound 1.64]
activity/efficacy with GST enzyme (in words) [1]: retained the detoxification effectiveness | GST Activity > 50% [1]: ✔ (✔: yes) | activity with GPx and GR enzymes (in words) [2]: loss of activity | GT/GPx Activity > 50% [2]: X (X: no) | cell viability versus untreated groups (in words) (Fibroblast cells): significantly higher cell viability than the untreated groups | % Cell Viability (with UV) (Fibroblast cells; mean ± SD, n = 6): 98.5 ± 7.1% | viability at 24 h, 0.0325 mmolL^−1 [5]: 128 ± 7.9% | IC50 ([3]; Homo sapiens): > 3.25 mM | GGT degradation compared to GSH (in words) [4]: less than half the rate of GGT degradation | % Degradation by GGT [4]: 60.2%

CN(CC(=O)O)C(=O)[C@H](CS)NC(=O)CC[C@H](N)C(=O)O [Compound 1.65]
activity/efficacy with GST enzyme (in words) [1]: loss of activity | GST Activity > 50% [1]: X (X: no) | activity with GPx and GR enzymes (in words) [2]: retention of activity | GT/GPx Activity > 50% [2]: ✔ (✔: yes) | cell viability versus untreated groups (in words) (Fibroblast cells): significantly higher cell viability than the untreated groups | % Cell Viability (with UV) (Fibroblast cells; mean ± SD, n = 6): 69.3 ± 26.6% | viability at 24 h, 0.0325 mmolL^−1 [5]: 58.8% | IC50 ([3]; Homo sapiens): 0.984 mM | GGT degradation compared to GSH (in words) [4]: did not show a decrease in degradation | % Degradation by GGT [4]: 122.2%

CN[C@@H](CCC(=O)N[C@@H](CS)C(=O)NCC(=O)O)C(=O)O [Compound 1.71]
activity/efficacy with GST enzyme (in words) [1]: loss of activity | GST Activity > 50% [1]: X (X: no) | activity with GPx and GR enzymes (in words) [2]: retention of activity | GT/GPx Activity > 50% [2]: ✔ (✔: yes) | cell viability versus untreated groups (in words) (Fibroblast cells): significantly higher cell viability than the untreated groups | % Cell Viability (with UV) (Fibroblast cells; mean ± SD, n = 6): 97.0 ± 5.5% | viability at 24 h, 0.0325 mmolL^−1 [5]: 79.5 ± 10.2% | % Degradation by GGT [4]: 11.7%

From PMC11945201, “Enhancing the Oral Bioavailability of Glutathione Using Innovative Analogue Approaches” (Pharmaceutics, 2025)
